Experiments:
[1] = tested on: BV2 (mouse microglia) cell line; assay: pHrodo-myelin phagocytosis/cell viability high content imaging assay: viability (cell count, nuclear area, nuclear intensity); settings: for 1. Cell count (% control) / 2. Nuclear Area (% Control) / 3. Nuclear DNA Intensity (% control): 48 hours treatment
Outline: (§1)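 Viability was read by high-content imaging as cell count per well and nuclear intensity per cell, in murine BV2 and human HMC3 microglial lines. Cells received a single 10 μM compound dose for 48 h, including 20 h with pHrodo-myelin. Duplicate means are expressed as % of untreated control.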

[2] = tested on: HMC3 (human microglia) cell line; assay: as above; settings: for 1. Cell count (% control) / 2. Nuclear Area (% Control) / 3. Nuclear DNA Intensity (% control): 48 hours treatment
Outline: as §1

[3] = tested on: BV2 (mouse microglia) cell line; assay: pHrodo-myelin phagocytosis/cell viability high content imaging assay: phagocytosis signal; type: cell-based
Outline: (§2)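 High content imaging, roughly 22 hours post pHrodo-myelin addition, recorded phagocytosis signal alongside viability in microglial lines BV2 (mouse) and HMC3 (human). Apoptosis tracked through intensity rise (early) and fall (later) among three extracted measurements.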

[4] = tested on: HMC3 (human microglia) cell line; assay: as above; type: cell-based
Outline: as §2

[5] = BV2, compound 10 uM, pHrodo-myelin
[6] = HMC3, compound 10 uM, pHrodo-myelin
[7] = BV2 cells, 10 uM compound, 48 hours treatment, pHrodo-myelin final 20 hours
[8] = HMC3 cells, 10 uM compound, 48 hours treatment, pHrodo-myelin final 20 hours

| SMILES | Mouse microglial cytotoxicity at 10 μM (<70% control) ([1]; 10 μM, BV2) | Human microglial cytotoxicity at 10 μM (<70% control) ([2]; 10 μM, HMC3) | Stimulation of mouse microglial phagocytosis at 10 μM (>150% control) ([3]; 10 μM, BV2) | Inhibition of human microglial phagocytosis at 10 μM (<70% control) ([4]; 10 μM, HMC3) | 1. Cell count (% control) ([1]; BV2, compound 10 uM) | 2. Nuclear Area (% Control) ([1]; BV2, compound 10 uM) | 3. Nuclear DNA Intensity (% control) ([1]; BV2, compound 10 uM) | 1. Cell count (% control) ([2]; HMC3, compound 10 uM) | 2. Nuclear Area (% Control) ([2]; HMC3, compound 10 uM) | 3. Nuclear DNA Intensity (% control) ([2]; HMC3, compound 10 uM) | 4. Phagocytosis (% control) [3, 5] [% control] | 4. Phagocytosis (% control) [4, 6] [% control] | 1. Cell count (% control) ([1]; BV2 cells, 10 uM compound) | 2. Nuclear Area (% Control) ([1]; BV2 cells, 10 uM compound) | 3. Nuclear DNA Intensity (% control) ([1]; BV2 cells, 10 uM compound) | 1. Cell count (% control) ([2]; HMC3 cells, 10 uM compound) | 2. Nuclear Area (% Control) ([2]; HMC3 cells, 10 uM compound) | 3. Nuclear DNA Intensity (% control) ([2]; HMC3 cells, 10 uM compound) | 4. Phagocytosis (% control) [3, 7] [% control] | 4. Phagocytosis (% control) [4, 8] [% control] |
| --- | --- | --- | --- | --- | --- | --- | --- | --- | --- | --- | --- | --- | --- | --- | --- | --- | --- | --- | --- | --- |
| COc1cc([C@@H]2c3cc4c(cc3[C@H](O)[C@H]3COC(=O)[C@H]23)OCO4)cc(OC)c1OC [Podofilox] | Y (The compound was found to be cytotoxic (cell count threshold: <70% control) when murine immortalized microglial cells were dosed at 10 μM (Y: yes)) | Y (The compound was found to be cytotoxic (cell count threshold: <70% control) when human immortalized microglial cells were dosed at 10 μM (Y: yes)) | Y (The compound was found to stimulate phagocytosis (response threshold: >150% control) when murine immortalized microglial cells were dosed at 10 μM (Y: yes)) | Y (The compound was found to inhibit phagocytosis (response threshold: <70% control) when human immortalized microglial cells were dosed at 10 μM (Y: yes)) | – | – | – | – | – | – | – | – | – | – | – | – | – | – | – | – |
| COC(=O)C1=C(C)NC2=C(C(=O)c3ccccc32)C1c1ccccc1OCc1ccccc1F (stereo not shown) [UNC10303111A] | – | – | – | – | 84.0 | 101.6 | 106.1 | 166.8 | 93.9 | 99.7 | 307.3 | 61.6 | – | – | – | – | – | – | – | – |
| COc1cc(/C=C/c2ccc(NC(=O)/C=C/c3cc(OC)c(OC)c(OC)c3)cc2)cc(OC)c1 [UNC10302905A] | – | – | – | – | – | – | – | – | – | – | – | – | 33.3 | 95.8 | 130.4 | 87.3 | 107.2 | 109.8 | 64.0 | 65.4 |
| CC(C)(C)c1cc(NC(=O)Nc2ccc(-c3cn4c(n3)sc3cc(OCCN5CCOCC5)ccc34)cc2)no1 [UNC10220373A] | – | – | – | – | 110.4 | 100.2 | 106.6 | 110.3 | 101.4 | 94.2 | 143.1 | 81.7 | – | – | – | – | – | – | – | – |
| CNC(=O)CN1CCC(Oc2cc3c(Nc4cccc(Cl)c4F)ncnc3cc2OC)CC1 [UNC10302865A] | – | – | – | – | – | – | – | – | – | – | – | – | 102.4 | 110.1 | 101.0 | 132.1 | 105.8 | 90.8 | 68.8 | 152.7 |
| Cc1cc2c(cc1C1(c3ccc(C(=O)O)cn3)CC1)C(C)(C)CCC2(C)C [UNC10302904A] | – | – | – | – | – | – | – | – | – | – | – | – | 72.5 | 111.9 | 92.6 | 110.6 | 108.2 | 90.0 | 105.9 | 73.6 |
| Cl.NC(=O)c1cnc(N[C@@H]2CCCC[C@@H]2N)nc1Nc1cccc(-n2nccn2)c1 [UNC10302682A] | – | – | – | – | – | – | – | – | – | – | – | – | 28.1 | 80.4 | 42.1 | 54.1 | 63.7 | 181.4 | 0.00121 | 0.13 |
| COc1ccc(CC[C@@H](OC(=O)[C@@H]2CCCCN2C(=O)[C@H](c2cc(OC)c(OC)c(OC)c2)C2CCCCC2)c2cccc(OCC(=O)O)c2)cc1OC [UNC10302701A] | – | – | – | – | 117.8 | 104.1 | 103.5 | 116.9 | 101.8 | 97.5 | 156.6 | 71.9 | – | – | – | – | – | – | – | – |
| CN(C)CCCOc1c(Br)cc(/C=C/C(=O)NCCCOc2c(Br)cc(CCN(C)C)cc2Br)cc1Br [UNC10302702A] | – | – | – | – | 26.8 | 80.6 | 57.8 | 39.0 | 54.1 | 166.0 | 0.0 | 0.00724 | – | – | – | – | – | – | – | – |
| CC/C(=C(\c1ccccc1)c1ccc(OCCN(C)C)cc1)c1ccccc1 [UNC10101258B] | – | – | – | – | 72.9 | 98.7 | 95.7 | – | 95.6 | 91.8 | 320.1 | 72.6 | – | – | – | – | – | – | – | – |
| CCC(=O)N1CCC(NC(=O)Nc2ccc(OC(F)(F)F)cc2)CC1 [UNC10302681A] | – | – | – | – | – | – | – | – | – | – | – | – | 105.6 | 99.0 | 108.5 | 147.2 | 103.6 | 94.9 | 102.7 | 96.8 |
| CCC(=O)O[C@]1(C(=O)SCF)[C@H](C)C[C@H]2[C@@H]3C[C@H](F)C4=CC(=O)C=C[C@]4(C)[C@@]3(F)[C@@H](O)C[C@@]21C [UNC10121416A] | – | – | – | – | – | – | – | – | – | – | – | – | 84.8 | 98.6 | 113.9 | 136.9 | 109.9 | 86.5 | 95.5 | 94.0 |

— article PMC9019904, “AD Informer Set: Chemical tools to facilitate Alzheimer's disease drug discovery” (Alzheimer's & Dementia : Translational Research & Clinical …, 2022)
